# Laboratory results reported in PMC3265452 (PLoS Neglected Tropical Diseases, 2012).
# Structures can show the parent of a compound that is named as a salt.
# Target: AaDOP2 (Aedes aegypti, UniProt H6D5H2)
# Experiment: AaDOP2 antagonist screen of the LOPAC1280 library (HEK-CRELuc-Aadop2 cells, luminescence)
# Type: cell-based
# Conditions: not given
# AaDOP2, sequence (H6D5H2 1-476): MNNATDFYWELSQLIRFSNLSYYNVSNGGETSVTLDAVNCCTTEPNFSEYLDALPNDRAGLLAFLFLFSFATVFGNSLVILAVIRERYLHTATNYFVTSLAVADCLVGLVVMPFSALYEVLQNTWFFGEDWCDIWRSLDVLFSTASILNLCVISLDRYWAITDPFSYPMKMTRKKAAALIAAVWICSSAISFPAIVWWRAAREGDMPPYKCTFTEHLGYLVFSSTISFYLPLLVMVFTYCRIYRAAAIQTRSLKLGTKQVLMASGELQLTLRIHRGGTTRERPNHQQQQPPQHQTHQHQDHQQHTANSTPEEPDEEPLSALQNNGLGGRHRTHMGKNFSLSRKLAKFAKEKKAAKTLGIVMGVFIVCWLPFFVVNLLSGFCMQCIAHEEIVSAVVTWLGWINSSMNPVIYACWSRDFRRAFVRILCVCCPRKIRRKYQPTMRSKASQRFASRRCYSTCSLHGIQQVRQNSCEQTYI
Structure (SMILES),"Compound effect (percent receptor signaling in presence of test compound, relative lux units relative to the SCH23390 control)",% of the SCH23390 effect (percent inhibition of receptor response relative to the SCH23390 control) [%]
"CN(C)CCC=C1c2ccccc2C=Cc2ccccc21 [Compound 263, Cyclobenzaprine hydrochloride]",106,–
"C[C@]12CC[C@@H]3c4ccc(O)cc4CC[C@H]3[C@@H]1CC[C@@H]2O [Compound 499, beta-Estradiol]",112,–
"COCCCC/C(=N\OCCN)c1ccc(C(F)(F)F)cc1 [Compound 514, Fluvoxamine maleate]",114,–
"CN(C)CCOC(C)(c1ccccc1)c1ccccn1 (stereo not drawn) [Compound 379, Doxylamine succinate]",85,–
"CN1CCc2cccc(Cl)c2CC1 [Compound 1082, SKF 86466]",37,–
"O=C1C(SCCO)=C(SCCO)C(=O)c2ccccc21 [Compound 631, NSC 95397]",17,83
"Nc1nc(SCc2ccc([N+](=O)[O-])cc2)c2ncn([C@@H]3O[C@H](CO)[C@@H](O)[C@H]3O)c2n1 [Compound 10, S-(4-Nitrobenzyl)-6-thioguanosine]",105,–
"C=C[C@H]1C[N@@]2CC[C@H]1C[C@@H]2[C@@H](O)c1ccnc2ccc(OC)cc12 [Compound 1029, Quinidine sulfate]",69,–
"OC[C@H]1NC[C@H](O)[C@@H](O)[C@@H]1O [Compound 429, 1-Deoxynojirimycin hydrochloride]",116,–
"CN(C)C(=O)Oc1cccc([N+](C)(C)C)c1 [Compound 842, Neostigmine bromide]",100,–
"CC(C)c1cccc(C(C)C)c1O [Compound 452, Propofol]",94,–
"Br.COc1ccc2c(c1)[C@]13CCCC[C@@H]1[C@H](C2)N(C)CC3.O [Compound 370, Dextromethorphan hydrobromide monohydrate]",102,–
"CC(C)(C)c1o[nH]c(=O)c1CC(N)C(=O)O (stereo not drawn) [Compound 150, ATPA]",101,–
"O=C(O)c1cc2cc(F)ccc2[nH]1 [Compound 8, 5-Fluoroindole-2-carboxylic acid]",92,–
"O=C(O)/C=C\C(=O)O.O=C(O)/C=C\C(=O)O.c1ccc2nc(N3CCNCC3)ccc2c1 [Compound 1030, Quipazine dimaleate]",71,–
"COc1ccc2[nH]c3c(c2c1)CCNC3 [Compound 9, 6-Methoxy-1,2,3,4-tetrahydro-9H-pyrido[3,4b] indole]",116,–
"NCCc1c[nH]c2ccccc12 [Compound 7, Tryptamine hydrochloride]",121,–
"CCn1c(=O)[nH]c2cc(Cl)c(Cl)cc21 [Compound 428, DCEBIO]",67,–

# Same assay, conditions: 10 µM compound, 300 nM dopamine, 2 hr; hit = compound effect <20
row,Structure (SMILES),"Compound effect (percent receptor signaling in presence of test compound, relative lux units relative to the SCH23390 control) [%]"
1,"CCCN1CCO[C@@H]2c3cc(O)ccc3OC[C@H]21.Cl [Compound 1019, S(+)-PD 128,907 hydrochloride]",89
2,"C[C@]12CCC(=O)C=C1CC[C@@H]1[C@@H]2[C@@H](O)C[C@@]2(C)[C@H]1CC[C@]2(O)C(=O)COC(=O)CCC(=O)[O-].[Na+] [Compound 583, Hydrocortisone 21-hemisuccinate sodium]",136
